In ChEMBL document CHEMBL5724914, “Linking interpersonal differences in gut microbiota composition and drug biotransformation activity” (2024):

What was measured:
[1] = human gut metagenome, 24 h, 2 µM
[2] = human gut metagenome, 24 h, 2 µM; remark: listed apart in the source
[3] = (§1) The drug is tested on WLS-039 corresponding to human gut metagenome with ENA study accession number: PRJEB37062 and ENA sample accession number: ERS12561746 for biotransformation under anaerobic condition. The drug concentrations were measured over 9 timepoints collected between 0 and 24 hours of incubation by liquid-chromatography-coupled mass spectrometry (LC–MS); conditions: 2 µM
[4] = as §1, with “Z-010” for “WLS-039”, “to” for “to human gut”, “ERS12561810” for “ERS12561746”; conditions: 2 µM
[5] = as §1, with “Z-011” for “WLS-039”, “mouse” for “human”, “ERS12561811” for “ERS12561746”; conditions: 2 µM
[6] = human gut metagenome, 24 h, 2 µM; remark: listed apart in the source
[7] = as §1, with “Z-028” for “WLS-039”, “mouse” for “human”, “ERS12561827” for “ERS12561746”; conditions: 2 µM
[8] = as §1, with “WLS-240” for “WLS-039”, “ERS12561773” for “ERS12561746”; conditions: 2 µM
[9] = as §1, with “Z-018” for “WLS-039”, “pig” for “human”, “ERS12561817” for “ERS12561746”; conditions: 2 µM
[10] = as §1, with “WLS-077” for “WLS-039”, “ERS12561750” for “ERS12561746”; conditions: 2 µM
[11] = as §1, with “WLS-350” for “WLS-039”, “ERS12561789” for “ERS12561746”; conditions: 2 µM
[12] = human gut metagenome, 24 h, 2 µM; remark: listed apart in the source
[13] = as §1, with “Z-001” for “WLS-039”, “mouse” for “human”, “ERS12561801” for “ERS12561746”; conditions: 2 µM
[14] = as §1, with “Z-013” for “WLS-039”, “rabbit” for “human”, “ERS12561813” for “ERS12561746”; conditions: 2 µM
[15] = human gut metagenome, 24 h, 2 µM; remark: listed apart in the source
[16] = as §1, with “Z-023” for “WLS-039”, “to” for “to human gut”, “ERS12561822” for “ERS12561746”; conditions: 2 µM
[17] = as §1, with “Z-008” for “WLS-039”, “to” for “to human gut”, “ERS12561808” for “ERS12561746”; conditions: 2 µM
[18] = as §1, with “Z-006” for “WLS-039”, “mouse” for “human”, “ERS12561806” for “ERS12561746”; conditions: 2 µM
[19] = human gut metagenome, 24 h, 2 µM; remark: listed apart in the source
[20] = human gut metagenome, 24 h, 2 µM; remark: listed apart in the source

Measured: Bacterial Biotransformation
Further: call rule not given here.

CCN(CC)CCOC(=O)C1(C2CCCCC2)CCCCC1 [DICYCLOMINE]
Compound metabolized: [4] | [6] | [12] | [16] | [19]
Compound NOT metabolized: all other assays above

COc1ccc([C@@H]2Sc3ccccc3N(CCN(C)C)C(=O)[C@@H]2OC(C)=O)cc1 [DILTIAZEM]
Compound NOT metabolized: [5] | [6] | [10] | [14] | [17] | [18] | [20]
Compound metabolized: all other assays above

OCCN(CCO)c1nc(N2CCCCC2)c2nc(N(CCO)CCO)nc(N3CCCCC3)c2n1 [DIPYRIDAMOLE]
Compound NOT metabolized: [1] | [5] | [6] | [7] | [13] | [14] | [17] | [18]
Compound metabolized: all other assays above

COc1cc2nc(N3CCN(C(=O)C4COc5ccccc5O4)CC3)nc(N)c2cc1OC.CS(=O)(=O)O (stereo not given) [DOXAZOSIN MESYLATE]
Compound NOT metabolized: [1] | [3] | [5] | [7] | [13] | [15] | [17] | [18]
Compound metabolized: all other assays above

CN(C)CCOC(C)(c1ccccc1)c1ccccn1.O=C(O)CCC(=O)O (stereo not given) [DOXYLAMINE SUCCINATE]
Compound NOT metabolized: all assays above

Br.CN1CCC[C@@H]1Cc1c[nH]c2ccc(CCS(=O)(=O)c3ccccc3)cc12 [ELETRIPTAN HYDROBROMIDE]
Compound metabolized: [2] | [8] | [12] | [19]
Compound NOT metabolized: all other assays above

CCOc1ccc2nc(S(N)(=O)=O)sc2c1 [ETHOXZOLAMIDE]
Compound NOT metabolized: all assays above

CCc1cccc2c3c([nH]c12)C(CC)(CC(=O)O)OCC3 (stereo not given) [ETODOLAC]
Compound NOT metabolized: [4] | [5] | [7] | [10] | [11] | [13] | [14] | [16] | [17] | [18]
Compound metabolized: all other assays above
